How the values were obtained:
Son of Sevenless (SOS) = molecular target: T1, Son of Sevenless (SOS) (Homo sapiens, UniProt Q07889); test: Binding to SOS, fluorescence polarization anisotropy (FPA) displacement of FITC-conjugated probe; details: binding affinity calculated from IC50 of FITC-probe displacement, read-out: Binding affinities (binding affinity to SOS)
T1 sequence (Q07889 564-1049 limits assumed): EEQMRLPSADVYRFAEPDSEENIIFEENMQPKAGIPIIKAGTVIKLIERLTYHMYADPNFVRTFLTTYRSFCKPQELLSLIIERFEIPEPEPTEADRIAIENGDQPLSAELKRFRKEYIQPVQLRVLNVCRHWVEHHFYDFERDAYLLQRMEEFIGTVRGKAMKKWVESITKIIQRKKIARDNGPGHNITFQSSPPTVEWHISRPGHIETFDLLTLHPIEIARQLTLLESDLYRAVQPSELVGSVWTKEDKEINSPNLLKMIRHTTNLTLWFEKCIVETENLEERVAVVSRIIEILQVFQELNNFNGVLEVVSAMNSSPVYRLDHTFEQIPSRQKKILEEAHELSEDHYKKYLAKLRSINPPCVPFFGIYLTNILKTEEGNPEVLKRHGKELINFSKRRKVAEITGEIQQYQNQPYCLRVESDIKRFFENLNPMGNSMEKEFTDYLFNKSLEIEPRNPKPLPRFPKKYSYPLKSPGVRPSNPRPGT
Method: Compounds of the present invention were tested for their ability to the Ras guanine exchange factor (GEF) Son of Sevenless (SOS). Binding to SOS was measured using a Fluorescence polarization anisotropy (FPA) assay that assesses the ability of a test compound to displace a fluorescent FITC-conjugated compound. Briefly, the labeled probe compound is incubated with SOS in buffer. Changes in anisotropy indicative of displacement of the labeled probe for a test compound are assessed over a dose range of test compound. Data was analyzed by plotting fluorescence anisotropy values as a function of compound concentration. IC50 values were determined using a four-parameter dose-response (variable slope) and binding affinities were calculated from this IC50 value. This assay is performed in a method analogous to the assay disclosed in: Burns, M. C.; Sun, Q.; Daniels, R. N.; Camper, D. V.; Kennedy, J. P.; Phan, J.; Olejniczak, E. O.; Lee, T.; Waterson, A. G.; Rossanese, O. W.; Fesik, S. W. “Approach for targeting Ras with small molecules that activate SOS-mediated nucleotide exchange” Proc. Natl. Acad. Sci. 2014; 11(9): 3401-3406. PMCID: PMC3948241.

[1] = molecular target: T2, SOS-mediated nucleotide exchange on Ras (Homo sapiens, UniProt Q07889); test: SOS-mediated nucleotide exchange on Ras (BODIPY-GDP fluorescence); type: biochemical; details: Ras loaded with BODIPY-GDP, GTP and SOS added; EC50 from derived exchange rates
T2 sequence (Q07889 1-1333): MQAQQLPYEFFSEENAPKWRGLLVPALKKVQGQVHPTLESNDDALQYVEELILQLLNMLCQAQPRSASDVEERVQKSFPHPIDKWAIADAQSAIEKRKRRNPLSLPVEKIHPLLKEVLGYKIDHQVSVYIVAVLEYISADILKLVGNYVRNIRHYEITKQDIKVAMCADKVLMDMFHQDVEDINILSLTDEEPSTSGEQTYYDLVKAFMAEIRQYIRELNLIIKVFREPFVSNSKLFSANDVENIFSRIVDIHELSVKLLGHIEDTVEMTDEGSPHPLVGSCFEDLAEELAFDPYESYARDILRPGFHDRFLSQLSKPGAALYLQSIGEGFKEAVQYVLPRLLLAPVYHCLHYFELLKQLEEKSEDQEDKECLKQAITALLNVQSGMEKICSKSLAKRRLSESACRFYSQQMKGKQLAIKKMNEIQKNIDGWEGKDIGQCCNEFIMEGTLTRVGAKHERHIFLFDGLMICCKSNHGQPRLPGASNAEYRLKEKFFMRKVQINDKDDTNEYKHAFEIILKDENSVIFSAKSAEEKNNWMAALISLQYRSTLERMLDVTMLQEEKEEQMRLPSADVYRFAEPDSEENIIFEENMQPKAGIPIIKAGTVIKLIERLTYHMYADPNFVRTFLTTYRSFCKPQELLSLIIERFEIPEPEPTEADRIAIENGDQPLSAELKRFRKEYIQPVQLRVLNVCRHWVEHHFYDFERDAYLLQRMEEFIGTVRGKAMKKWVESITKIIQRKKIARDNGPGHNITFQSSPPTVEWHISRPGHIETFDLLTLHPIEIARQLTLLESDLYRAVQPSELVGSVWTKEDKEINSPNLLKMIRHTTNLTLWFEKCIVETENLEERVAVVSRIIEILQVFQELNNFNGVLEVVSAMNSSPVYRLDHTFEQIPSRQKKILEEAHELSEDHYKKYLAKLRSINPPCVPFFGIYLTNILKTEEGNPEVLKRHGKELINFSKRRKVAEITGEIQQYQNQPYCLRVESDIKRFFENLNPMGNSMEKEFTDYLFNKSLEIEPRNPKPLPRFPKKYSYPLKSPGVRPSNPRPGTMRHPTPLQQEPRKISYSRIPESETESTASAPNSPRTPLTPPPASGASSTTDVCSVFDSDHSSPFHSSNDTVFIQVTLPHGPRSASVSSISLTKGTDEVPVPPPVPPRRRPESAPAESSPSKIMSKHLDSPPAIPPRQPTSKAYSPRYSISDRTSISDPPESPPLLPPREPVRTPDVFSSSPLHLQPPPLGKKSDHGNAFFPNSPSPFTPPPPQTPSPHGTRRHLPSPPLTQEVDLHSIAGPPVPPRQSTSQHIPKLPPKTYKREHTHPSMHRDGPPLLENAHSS
Method: A. SOS-Mediated Nucleotide Exchange on Ras
Compounds of the present invention were tested for their ability to modify the rate at which Ras exchanges a labeled nucleotide guanosine diphosphate (GDP) analog for guanosine triphosphate (GTP). Briefly, test compounds, then GTP and the Ras GEF SOS (Son of Sevenless) are added to a buffered solution containing Ras protein loaded with BODIPY-GDP. Changes in fluorescence indicating exchange of the labeled GDP for GTP are monitored over time. Raw fluorescence data was fit to a single exponential decay function and derived rates were plotted as mean values. EC50 values were calculated by plotting mean derived rates as a function of compound concentration and fit using a four-parameter dose-response curve. Full assay details are disclosed in: Burns, M. C.; Sun, Q.; Daniels, R. N.; Camper, D. V.; Kennedy, J. P.; Phan, J.; Olejniczak, E. O.; Lee, T.; Waterson, A. G.; Rossanese, O. W.; Fesik, S. W. “Approach for targeting Ras with small molecules that activate SOS-mediated nucleotide exchange” Proc. Natl. Acad. Sci. 2014; 11(9): 3401-3406. PMCID: PMC3948241.

SMILES | Ki (Son of Sevenless (SOS)) [µM] | EC50 [1] [µM]
CCC(Nc1nc(Nc2ccc(F)c(Cl)c2)nc2ccccc12)C(C)C (centres unmarked) [Example 2, N^2-(3-chloro-4-fluorophenyl)-N^4-(2-methylpentan-3-yl)quinazoline-2,4-diamine] | > 5 | 1 to 5
C[C@@H](Nc1nc(NCC2CCCC2)nc2ccccc12)C1CC1 [Example 3, (R)—N^2-(cyclopentylmethyl)-N^4-(1-cyclopropylethyl)quinazoline-2,4-diamine] | > 5 | 1 to 5
C[C@@H](Nc1nc(NCC2CCCCC2)nc2ccccc12)C1CC1 [Example 4, (R)—N^2-(cyclohexylmethyl)-N^4-(1-cyclopropylethyl)quinazoline-2,4-diamine] | > 5 | 1 to 5
Clc1cc(Cl)cc(Nc2nc(NCc3cccs3)c3ccccc3n2)c1 [Example 9, N^2-(3,5-dichlorophenyl)-N^4-(thiophen-2-ylmethyl)quinazoline-2,4-diamine] | > 5 | < 1
Fc1ccc(CNc2nc(NCc3ccco3)c3ccccc3n2)cc1 [Example 14, N^2-(4-fluorobenzyl)-N^4-(furan-2-ylmethyl)quinazoline-2,4-diamine] | > 5 | 1 to 5
C[C@@H](Nc1nc(NCc2ccc(F)cc2F)nc2ccccc12)C1CC1 [Example 19, (R)—N^4-(1-cyclopropylethyl)-N^2-(2,4-difluorobenzyl)quinazoline-2,4-diamine] | > 5 | 5 to 30
Fc1ccc(Nc2nc(NC(C3CC3)C3CC3)c3ccccc3n2)cc1Cl [Example 21, N^2-(3-chloro-4-fluorophenyl)-N^4-(dicyclopropylmethyl)quinazoline-2,4-diamine] | > 5 | 1 to 5
C[C@@H](Nc1nc(Nc2cc(F)cc(C#N)c2)nc2ccccc12)C1CC1 [Example 23, (R)-3-((4-((1-cyclopropylethyl)amino)quinazolin-2-yl)amino)-5-fluorobenzonitrile] | > 5 | 1 to 5
Cc1cc(CNc2nc(N[C@H](C)C3CC3)c3ccccc3n2)ccc1F [Example 24, (R)—N^4-(1-cyclopropylethyl)-N^2-(4-fluoro-3-methylbenzyl)quinazoline-2,4-diamine] | > 5 | 1 to 5

Continued, values first:

Ki (Son of Sevenless (SOS)) [µM] | EC50 [1] [µM] | SMILES
> 5 | 5 to 30 | COc1cccc(CNc2nc(N[C@H](C)C3CC3)c3ccccc3n2)c1 [Example 27, (R)—N^4-(1-cyclopropylethyl)-N^2-(3-methoxybenzyl)quinazoline-2,4-diamine]
> 5 | 1 to 5 | Clc1ccc(Nc2nc(NCc3ccco3)c3ccccc3n2)cc1Cl [Example 32, N^2-(3,4-dichlorophenyl)-N^4-(furan-2-ylmethyl)quinazoline-2,4-diamine]
> 5 | 5 to 30 | CC[C@@H](Nc1nc(Nc2ccc(F)c(Cl)c2)nc2ccccc12)C1CC1 [Example 34, (R)—N^2-(3-chloro-4-fluorophenyl)-N^4-(1-cyclopropylpropyl)quinazoline-2,4-diamine]
> 5 | 1 to 5 | CC[C@@H](Nc1nc(Nc2cc(F)cc(F)c2)nc2ccccc12)C1CC1 [Example 35, (R)—N^4-(1-cyclopropylpropyl)-N^2-(3,5-difluorophenyl)quinazoline-2,4-diamine]
> 5 | 1 to 5 | CCC[C@@H](Nc1nc(Nc2ccc(F)c(Cl)c2)nc2ccccc12)C1CC1 [Example 36, (R)—N^2-(3-chloro-4-fluorophenyl)-N^4-(1-cyclopropylbutyl)quinazoline-2,4-diamine]
> 5 | 1 to 5 | C[C@@H](Nc1nc(Nc2ccc(F)c(Cl)c2)nc2ccccc12)c1cccs1 [Example 37, (R)—N^2-(3-chloro-4-fluorophenyl)-N^4-(1-(thiophen-2-yl)ethyl)quinazoline-2,4-diamine]
> 5 | 1 to 5 | C[C@@H](Nc1nc(Nc2cc(F)cc(F)c2)nc2ccccc12)c1cccs1 [Example 38, (R)—N^2-(3,5-difluorophenyl)-N^4-(1-(thiophen-2-yl)ethyl)quinazoline-2,4-diamine]
> 5 | 1 to 5 | C[C@@H](Nc1nc(Nc2ccc(F)c(Cl)c2)nc2ccccc12)C(C)(C)C [Example 40, (R)—N^2-(3-chloro-4-fluorophenyl)-N^4-(3,3-dimethylbutan-2-yl)quinazoline-2,4-diamine]
> 5 | 1 to 5 | CC[C@@H](Nc1nc(Nc2ccc(F)c(Cl)c2)nc2ccccc12)C1CCC1 [Example 42, (R)—N^2-(3-chloro-4-fluorophenyl)-N^4-(1-cyclobutylpropyl)quinazoline-2,4-diamine]
1 to 5 | 1 to 5 | C[C@@H](Nc1nc(Nc2ccc(F)c(Cl)c2)nc2c(N3CCNCC3)cccc12)C1CC1 [Example 52, (R)—N^2-(3-chloro-4-fluorophenyl)-N^4-(1-cyclopropylethyl)-8-(piperazin-1-yl)quinazoline-2,4-diamine]
> 5 | 5 to 30 | C[C@@H](Nc1nc(Nc2ccc(F)c(Cl)c2)nc2c(NCCCN(C)C)cccc12)C1CC1 [Example 53, (R)—N^2-(3-chloro-4-fluorophenyl)-N^4-(1-cyclopropylethyl)-N^8-(3-(dimethylamino)propyl)quinazoline-2,4,8-triamine]
 | 5 to 30 | C[C@@H](Nc1nc(NCc2cccc(Cl)c2F)nc2c(C3=CCNCC3)cccc12)C(C)(C)C [Example 129, (R)—N^2-(3-chloro-2-fluorobenzyl)-N^4-(3,3-dimethylbutan-2-yl)-8-(1,2,3,6-tetrahydropyridin-4-yl)quinazoline-2,4-diamine]

From US11318137B2, “Quinazoline compounds as modulators of Ras signaling” (VANDERBILT UNIVERSITY, priority 2017, dated 2022)
